Test [1] relates to Phaeoacremonium aleophilum. Nature of the test: In vitro test in 96-well plates (spore germination, optical density). The test is classed as cell-based. The note with it: pos. control 50 μg, Pal, well row F. As to the method:
(§1) The lignin particle-solutions were pipetted in various concentrations (1, 5 and 10 μg/mL) into the 96 wells. Several differing nanoparticles were tested (see FIGS. 10 and 12). Afterwards a spore suspension (in minimal medium) of Esca associated fungi, each fungus separately in three wells, was added to the lignin-particle solution. The final volume was 200 μl per well and 500 spores in those 200 μl (means 2,500 spores/mL). The 96-well plate was incubated at 26° C. for 48 h on a shaker with 120 rpm. The optical density was determined after 24 and 48 h using a lab-bench plate reader (BioRad) at a wavelength of 600 nm.
(§2) […] The optical density of the medium without spores was also measured.
(§3) The results of three replicates were afterwards combined to calculate the average value of all samples (see also the standard deviation in FIG. 10).
(§4) The numbers 1 to 10 and the letters A to H are the labeling of the 96-well plate as well as the grid of the test system. The Numbers 66 to 84 are explained as the tested Lignin-particle solutions, they differ in their composition and fungicide concentration (see also Table 2). The optical density is […] to the activity of the fungicide. […] Therefore higher values of the optical density stand for more sporulation and fungal growths and less biological activity of the lignin formulation (e.g., in A1, A2). A low optical density is characteristic for a high fungal toxicity and bioactivity (see in A5 and A6).

For test [2], the system named is Phaeomoniella chlamydospora. The test is described as above. The test is classed as cell-based. The note with it: pos. control 50 μg, Pch, well row E. As for the experimental part:
as §1, §2, §3, §4

Where “and” joins values, the source holds several entries; their conditions need not be identical. Equal values may be shown once.

Consider `CP(=O)(O)CCC(N)C(=O)O` (stereo not shown) [Glufosinat-Ammonium], for which the “optical density measured at 600 nm” value in test [1] (first plate block) was 0.220 and 0.212 and 0.206; in test [1] (second plate block) it was 0.228 and 0.219 and 0.204; in test [2] (first plate block), 0.192 and 0.180 and 0.200; in test [2] (second plate block), 0.201 and 0.192 and 0.203.
